In the experiment the test system is adalimumab producing cell line 1. In words: Lys-C peptide mapping for MGO modification of adalimumab, cell line 1. The format is cell-based. The conditions noted are these: Example 3. An excerpt:
Typical trypsin digestion for peptide mapping cleaves a denatured, reduced and alkylated protein at the carboxyl side of the two basic amino acids, lysine and arginine. Methylglyoxal (MGO) is a small molecule metabolite derived as a glycolysis byproduct which can modify arginine residues. A modification of an arginine prevents trypsin from cutting this site and results in a mis-cleavage. The challenge of quantifying the amount of MGO modified peptide is that, it is not compared to an equivalent non-modified peptide but rather to two parental cleaved peptides. The two parental cleaved peptides likely have different ionization potential as compared to that of the modified peptide. In order to determine a truly accurate direct measurement of an MGO-modified peptide, it is compared to its non-modified counterpart and expressed as a percentage. Using endoproteinase lysine-C as an alternative enzyme, cleavages only occur at lysine residues. The result is a direct comparison of the same peptide with and without an MGO modification, which provides a high degree of accuracy in quantifying even trace levels of the modified species.
Procedure: Samples were dilated to a nominal concentration of 4 mg/mL. 8 M guanidine-HCl was added to the sample in a 3:1 ratio resulting in a 1 mg/mL concentration in 6M guanidine-HCl. […] Samples were analyzed by LC/MS peptide mapping. […] Eluting peaks were monitored using a Thermo Scientific LTQ-Orbitrap Mass Spectrometer. Specific mass traces were extracted for both modified and non-modified peptides in order to accurately quantify the total amount of MGO modification at each site. Mass spectra were also analyzed for the specific region of the chromatogram to confirm the peptide identity.
The cells were grown to maximum viable cell densities (VCD) in the range of 10-14×10^6 cells/ml for the different conditions tested. […] Samples were subsequently analyzed using Poros A for titer and WCX-10 post protein A purification. Based on the WCX-10 chromatograms, the percentages of total peak(s) area corresponding to the acidic species were quantified. […]

This is an account of results in patent publication US20160115225A1, “Methods of Reducing Methylglyoxal (MGO) Modification of Recombinant Proteins in Cell Culture” (AbbVie Inc., priority 2014, published 2016).

Turning to `O=CC[C@@H](O)[C@H](O)[C@H](O)CO` [Test 2DDG, 2-Deoxy-D-Glucose], the MGO modification (2DDG 0.25 g/l alone, day 11 harvest, control 32.01%) is reported as 18.03%; the MGO modification result (2DDG and temperature shift combined with arginine supplementation and/or lower pH) is listed as “substantial reduction”. Besides, for the setting “2DDG, temperature shift, lower pH and arginine supplementation all combined, day 11 harvest, control 32.01%”, the MGO protein modification was determined as 0.02%.
